The results in this text go back to patent US20260028326A1, “COMPOUND BASED ON ISOINDOLINE-SUBSTITUTED GLUTARIMIDE BACKBONE AND USE THEREOF” (GLUETACS THERAPEUTICS (SHANGHAI) CO., LTD., priority 2022, published 2026).

The target in assay [1] is IKZF3 protein (Homo sapiens (Human), UniProt Q96SW2+Q9UKT9). The experiment in a line: Western-blot assay of substrate protein degradation in hPBMC, IKZF3. It is filed as cell-based. To be noted: for residual substrate protein level, IKZF3: hPBMC cells, compound 500 nM, 24 hours, Western blot. On the technique in general: A western blot detects proteins with antibodies after separation by electrophoresis.

Assay [2] deals with GSPT1 protein (Homo sapiens (Human), UniProt P15170+Q96SW2). In words: Western-blot assay of substrate protein degradation in hPBMC, GSPT1. It is filed as cell-based. The following applies: for residual substrate protein level, GSPT1: hPBMC cells, compound 500 nM, 24 hours, Western blot.
The test system of assay [3] is Mino cells. The experiment in a line: Tumor cell proliferation IC50 (CCK-8), Mino.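 Also: cell viability assessed with CCK-8 reagent after compound exposure, IC50 derived from plotted growth inhibition curves.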 To be noted: Homo sapiens, 72 h, read-out: IC50 for inhibiting the proliferation of tumor cells, Mino.
The target of assay [4] is IKZF1 protein (Homo sapiens (Human), UniProt Q13422+Q96SW2). The experiment in a line: Western-blot assay of substrate protein degradation in hPBMC, IKZF1. The class given is cell-based. The following applies: for residual substrate protein level, IKZF1: hPBMC cells, compound 500 nM, 24 hours, Western blot.
In assay [5] the test system is CCRF-CEM cells. In words: Tumor cell proliferation IC50 (CCK-8), CCRF-CEM.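 Also: cell viability measured with CCK-8 reagent after compound treatment, IC50 taken from plotted growth inhibition curves.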 The following applies: Homo sapiens, 96 h, read-out: IC50 for inhibiting the proliferation of tumor cells, CCRF-CEM.
Procedure: (§1) The tumor cells used herein were cultured in a cell culture medium listed in table A at 37° C. in an incubator with 5% CO2.
(§2) After the cells were treated with the compounds of the present disclosure for a period of time, the cell viability detection reagent was added to the culture medium for cell viability assessment according to the instructions provided with the CCK-8 kit. […] The growth inhibition of the compounds of the present disclosure on cells was plotted by Prism Graphpad software, and the IC50 values of the compounds of the present disclosure were calculated therefrom.
Assay [6] deals with MM.1S cells. The experiment in a line: Tumor cell proliferation IC50 (CCK-8), MM.1S.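 Also: viability of cultured cells read by CCK-8 reagent after compound exposure, growth inhibition curves fitted to derive IC50.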 The following applies: Homo sapiens, MM1.S, 72 h, read-out: IC50 for inhibiting the proliferation of tumor cells, MM.1S.
Procedure: as §1, §2
Assay [7] has as its target human Cereblon WT GST-tagged protein (Homo sapiens (Human), UniProt Q96SW2). In words: CRBN-binding affinity, HTRF (CEREBLON BINDING kit). In short, it runs like this: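 GST-tagged human WT Cereblon incubated with compound, then Thalidomide-Re tracer and anti-GST Eu antibody added. Displacement read by HTRF, reported as CRBN binding inhibition rate against blank control wells without protein.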
(In general: In TR-FRET formats the signal depends on donor and acceptor labels being close together.)

Where [8] appears, read: hPBMC, 24 h, serially diluted 0.03-1000 nM.

Bounds are passed on as bounds.

Chain of IKZF3 protein (Q9UKT9 whole entry): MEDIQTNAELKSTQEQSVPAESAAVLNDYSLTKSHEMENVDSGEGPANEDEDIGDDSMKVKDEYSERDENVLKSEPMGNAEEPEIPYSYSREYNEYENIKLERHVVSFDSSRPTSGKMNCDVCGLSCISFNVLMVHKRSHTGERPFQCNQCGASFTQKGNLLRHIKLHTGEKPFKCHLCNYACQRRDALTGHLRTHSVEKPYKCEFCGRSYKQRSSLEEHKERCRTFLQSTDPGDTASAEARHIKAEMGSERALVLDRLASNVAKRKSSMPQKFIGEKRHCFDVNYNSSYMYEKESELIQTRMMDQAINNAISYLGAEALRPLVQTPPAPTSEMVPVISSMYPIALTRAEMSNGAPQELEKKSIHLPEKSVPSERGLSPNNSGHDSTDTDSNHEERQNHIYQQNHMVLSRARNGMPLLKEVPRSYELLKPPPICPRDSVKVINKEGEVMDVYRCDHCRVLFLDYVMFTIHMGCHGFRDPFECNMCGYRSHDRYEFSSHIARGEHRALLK
Chain of IKZF3 protein (Q96SW2 whole entry): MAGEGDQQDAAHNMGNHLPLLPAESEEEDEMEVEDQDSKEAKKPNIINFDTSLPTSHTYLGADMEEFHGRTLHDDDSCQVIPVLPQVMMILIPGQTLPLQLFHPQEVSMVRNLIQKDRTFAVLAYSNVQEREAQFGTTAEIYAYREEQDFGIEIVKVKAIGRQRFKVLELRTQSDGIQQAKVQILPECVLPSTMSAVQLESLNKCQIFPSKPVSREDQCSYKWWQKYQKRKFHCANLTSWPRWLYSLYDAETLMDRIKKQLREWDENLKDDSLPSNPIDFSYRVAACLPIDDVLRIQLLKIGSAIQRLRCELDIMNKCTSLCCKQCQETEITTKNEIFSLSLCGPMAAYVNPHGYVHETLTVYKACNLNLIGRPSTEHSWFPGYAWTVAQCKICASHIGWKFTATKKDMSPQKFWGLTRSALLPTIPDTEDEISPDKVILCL
Chain of IKZF3 protein (Q16531 whole entry partner): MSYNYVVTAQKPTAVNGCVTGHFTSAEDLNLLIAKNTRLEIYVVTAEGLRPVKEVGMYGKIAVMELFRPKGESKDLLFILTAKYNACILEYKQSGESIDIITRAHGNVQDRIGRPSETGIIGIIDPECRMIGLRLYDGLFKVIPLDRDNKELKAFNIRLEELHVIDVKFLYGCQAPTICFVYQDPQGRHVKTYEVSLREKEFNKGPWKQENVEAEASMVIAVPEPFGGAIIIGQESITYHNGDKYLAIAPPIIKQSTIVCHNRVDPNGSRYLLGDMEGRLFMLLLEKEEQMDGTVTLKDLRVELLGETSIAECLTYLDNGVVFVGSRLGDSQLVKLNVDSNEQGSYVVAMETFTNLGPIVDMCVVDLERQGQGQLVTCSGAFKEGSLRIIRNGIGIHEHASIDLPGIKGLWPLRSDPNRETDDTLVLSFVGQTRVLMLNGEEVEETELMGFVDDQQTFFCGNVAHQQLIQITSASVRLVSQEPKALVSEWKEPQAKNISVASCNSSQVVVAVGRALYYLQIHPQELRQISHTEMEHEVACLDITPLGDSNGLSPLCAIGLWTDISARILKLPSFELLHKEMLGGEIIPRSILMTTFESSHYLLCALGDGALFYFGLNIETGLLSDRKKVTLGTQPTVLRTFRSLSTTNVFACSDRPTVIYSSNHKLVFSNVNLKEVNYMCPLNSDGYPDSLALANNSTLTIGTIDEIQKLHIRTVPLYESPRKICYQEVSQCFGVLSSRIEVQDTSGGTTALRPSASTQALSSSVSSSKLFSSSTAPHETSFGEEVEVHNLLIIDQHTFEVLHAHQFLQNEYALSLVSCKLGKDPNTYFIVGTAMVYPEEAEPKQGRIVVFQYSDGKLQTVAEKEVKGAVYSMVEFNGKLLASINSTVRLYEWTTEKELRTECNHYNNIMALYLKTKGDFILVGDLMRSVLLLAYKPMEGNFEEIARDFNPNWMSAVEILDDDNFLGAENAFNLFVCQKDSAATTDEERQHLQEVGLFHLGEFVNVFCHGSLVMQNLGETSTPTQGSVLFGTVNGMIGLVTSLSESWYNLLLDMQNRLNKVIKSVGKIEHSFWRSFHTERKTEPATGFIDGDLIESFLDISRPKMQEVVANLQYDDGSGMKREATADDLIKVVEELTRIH
Chain of IKZF1 protein (Q13422 whole entry): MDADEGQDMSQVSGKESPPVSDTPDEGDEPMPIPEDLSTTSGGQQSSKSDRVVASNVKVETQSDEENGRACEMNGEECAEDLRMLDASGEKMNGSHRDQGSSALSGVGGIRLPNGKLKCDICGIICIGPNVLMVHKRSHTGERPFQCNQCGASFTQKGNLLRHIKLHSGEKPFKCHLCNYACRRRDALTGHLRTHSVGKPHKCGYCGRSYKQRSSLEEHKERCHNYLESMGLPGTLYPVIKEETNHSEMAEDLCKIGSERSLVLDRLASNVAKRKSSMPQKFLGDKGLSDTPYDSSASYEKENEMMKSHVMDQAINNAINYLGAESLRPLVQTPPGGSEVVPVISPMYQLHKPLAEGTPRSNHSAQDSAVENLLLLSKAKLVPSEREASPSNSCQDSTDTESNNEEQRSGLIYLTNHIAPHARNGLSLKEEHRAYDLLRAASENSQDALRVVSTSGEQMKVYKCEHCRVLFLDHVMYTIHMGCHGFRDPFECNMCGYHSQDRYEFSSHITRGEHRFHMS
Chain of IKZF1 protein (Q96SW2 whole entry): as the sequence (Q96SW2 whole entry) above
Chain of IKZF1 protein (Q16531 whole entry partner): as the sequence (Q16531 whole entry partner) above
Chain of GSPT1 protein (P15170 whole entry): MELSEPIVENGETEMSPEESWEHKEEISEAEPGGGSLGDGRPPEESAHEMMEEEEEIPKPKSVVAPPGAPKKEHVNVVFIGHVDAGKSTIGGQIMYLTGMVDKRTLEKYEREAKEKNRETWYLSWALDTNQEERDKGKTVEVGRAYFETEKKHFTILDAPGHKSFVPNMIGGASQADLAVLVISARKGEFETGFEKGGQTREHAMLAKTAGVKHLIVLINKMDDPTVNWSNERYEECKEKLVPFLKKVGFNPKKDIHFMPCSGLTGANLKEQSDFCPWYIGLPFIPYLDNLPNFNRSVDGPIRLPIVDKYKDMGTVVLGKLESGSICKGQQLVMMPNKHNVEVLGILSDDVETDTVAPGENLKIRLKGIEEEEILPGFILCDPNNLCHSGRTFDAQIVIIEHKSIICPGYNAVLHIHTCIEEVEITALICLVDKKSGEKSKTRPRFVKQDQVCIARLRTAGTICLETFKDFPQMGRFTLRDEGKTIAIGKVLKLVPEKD
Chain of GSPT1 protein (Q96SW2 whole entry): as the sequence (Q96SW2 whole entry) above
Chain of GSPT1 protein (Q16531 whole entry partner): as the sequence (Q16531 whole entry partner) above
Chain of human Cereblon WT GST-tagged protein (Q96SW2 whole entry): as the sequence (Q96SW2 whole entry) above

In the case of `Cc1ccc(C2=C(CN3CCN(Cc4ccc5c(c4)C(=O)N(C4CCC(=O)NC4=O)C5=O)CC3)CCC(C)(C)C2)cc1` (stereo not drawn) [GT-05793, 2-(2,6-dioxopiperidin-3-yl)-5-((4-((4′,5,5-trimethyl-3,4,5,6-tetrahydro-[1,1′-biphenyl]-2-yl)methyl)piperazin-1-yl)methyl)isoindoline-1,3-dione], the “residual substrate protein level, IKZF3” value in assay [1] is reported as “A (A represents a residual substrate protein level of <50%)”. Moreover, the “residual substrate protein level, GSPT1” value in assay [2] is “A (A represents a residual substrate protein level of <50%)”. Further, the IC50 in assay [3], in assay [5] and in assay [6] was 100 to 500 nM in each case. The “residual substrate protein level, IKZF1” value in assay [4] is given as “B (B represents a residual substrate protein level of >50%)”.

Turning to `CC1(C)CCC(CN2CCN(Cc3cc4c(cc3F)C(=O)N(C3CCC(=O)NC3=O)C4)C(C(F)(F)F)C2)=C(c2ccc(Cl)cc2)C1` (stereo not drawn) [GT-06101, 3-(5-((4-((4′-chloro-5,5-dimethyl-3,4,5,6-tetrahydro-[1,1′-biphenyl]-2-yl)methyl)-2-(trifluoromethyl)piperazin-1-yl)methyl)-6-fluoro-1-oxoisoindolin-2-yl)piperidine-2,6-dione], the IC50 in assay [5] was 500 to 1000 nM.

`O=C1CCC(N2Cc3cc(CN4CCN(Cc5ccccc5-c5ccc(Cl)cc5)CC4C(F)(F)F)ccc3C2=O)C(=O)N1` (stereo not drawn) [GT-05711, 3-(5-((4-((4′-chloro-[1,1′-biphenyl]-2-yl)methyl)-2-(trifluoromethyl)piperazin-1-yl)methyl)-1-oxoisoindolin-2-yl)piperidine-2,6-dione]: the IC50 in assay [7] is 490 nM; in assay [5], 100 to 500 nM.

With `CC1(C)CCC(CN2CCN(Cc3ccc4c(c3)CN(C3CCC(=O)NC3=O)C4=O)CC2)=C(c2ccco2)C1` (stereo not drawn) [GT-05790, 3-(5-((4-((2-(furan-2-yl)-4,4-dimethylcyclohex-1-en-1-yl)methyl)piperazin-1-yl)methyl)-1-oxoisoindolin-2-yl)piperidine-2,6-dione], the IC50 in assay [3] is 10 to 50 nM; in assay [7] it was 570 nM; in assay [5], 50 to 100 nM; in assay [6], 10 to 50 nM.

For `CC1(C)CCC(CN2CCN(Cc3ccc4c(c3)C(=O)N(C3CCC(=O)NC3=O)C4=O)CC2)=C(c2ccc(Cl)cc2)C1` (stereo not drawn) [GT-05364, 5-((4-((4′-chloro-5,5-dimethyl-3,4,5,6-tetrahydro-[1,1′-biphenyl]-2-yl)methyl)piperazin-1-yl)methyl)-2-(2,6-dioxopiperidin-3-yl)isoindoline-1,3-dione], the “residual substrate protein level, IKZF3” value in assay [1] is given as “A (A represents a residual substrate protein level of <50%)”. In assay [2], the “residual substrate protein level, GSPT1” value is given as “A (A represents a residual substrate protein level of <50%)”. For the same compound, in assay [4], the “residual substrate protein level, IKZF1” value is on record as “A (A represents a residual substrate protein level of <50%)”. Also, the IC50 in assay [5] and in assay [6] was 100 to 500 nM each time.

In the case of `O=C1CCC(N2Cc3cc(CN4CC5CCC(C4)N5C(=O)c4ccccc4-c4ccc(Cl)cc4)ccc3C2=O)C(=O)N1` (stereo not drawn) [GT-05542, 3-(5-((8-(4′-chloro-[1,1′-biphenyl]-2-carbonyl)-3,8-diazabicyclo[3.2.1]octan-3-yl)methyl)-1-oxoisoindolin-2-yl)piperidine-2,6-dione], the IC50 in assay [3] is below 5 nM; in assay [7], 440 nM; in assay [5], 10 to 50 nM; in assay [6] it was 10 to 50 nM.

As for `O=C1CCC(N2Cc3cc(CN4CCN(Cc5ccc(-c6cccs6)cc5)CC4)ccc3C2=O)C(=O)N1` (stereo not drawn) [GT-05640, 3-(1-oxo-5-((4-(4-(thiophen-2-yl)benzyl)piperazin-1-yl)methyl)isoindolin-2-yl)piperidine-2,6-dione], in assay [1], the “residual substrate protein level, IKZF3” value is on record as “A (A represents a residual substrate protein level of <50%)”. The “concentration at which significant degradation effects on IKZF3 protein are exhibited (FIG. 1)” value in assay [1] (setting [8]) is on record as below 3 nM. In addition, in assay [2], the “residual substrate protein level, GSPT1” value was “B (B represents a residual substrate protein level of >50%)”. Also, in assay [2] (setting [8]), the “concentration at which significant degradation effects on GSPT1 protein are exhibited (FIG. 1)” value was below 3 nM. For the same compound, the IC50 in assay [3] is 10 to 50 nM; in assay [7], 390 nM; in assay [6], 100 to 500 nM. The “residual substrate protein level, IKZF1” value in assay [4] is listed as “A (A represents a residual substrate protein level of <50%)”. In addition, the “concentration at which significant degradation effects on IKZF1 protein are exhibited (FIG. 1)” value in assay [4] (setting [8]) is below 3 nM.

Take `O=C1CCC(N2Cc3cc(C(=O)N4CCC(Nc5ccccc5-c5ccc(Cl)cc5)CC4)ccc3C2=O)C(=O)N1` (stereo not drawn) [GT-05646, 3-(5-(4-((4′-chloro-[1,1′-biphenyl]-2-yl)amino)piperidine-1-carbonyl)-1-oxoisoindolin-2-yl)piperidine-2,6-dione]: the “residual substrate protein level, IKZF3” value in assay [1] is on record as “B (B represents a residual substrate protein level of >50%)”. The “residual substrate protein level, GSPT1” value in assay [2] is “A (A represents a residual substrate protein level of <50%)”. In addition, the IC50 is 1020 nM in assay [7], 100 to 500 nM in assay [5] and 100 to 500 nM in assay [6]. The “residual substrate protein level, IKZF1” value in assay [4] is given as “B (B represents a residual substrate protein level of >50%)”.

Turning to `O=C1CCC(N2Cc3cc(C(=O)N4CC5CN(Cc6ccccc6-c6ccc(Cl)cc6)CC5C4)ccc3C2=O)C(=O)N1` (stereo not drawn) [GT-05642, 3-(5-(5-((4′-chloro-[1,1′-biphenyl]-2-yl)methyl)octahydropyrrolo[3,4-c]pyrrole-2-carbonyl)-1-oxoisoindolin-2-yl)piperidine-2,6-dione], in assay [1], the “residual substrate protein level, IKZF3” value is listed as “B (B represents a residual substrate protein level of >50%)”. Besides, the “residual substrate protein level, GSPT1” value in assay [2] was “A (A represents a residual substrate protein level of <50%)”. In addition, the IC50 in assay [7] was 490 nM; in assay [5] it was 50 to 100 nM; in assay [6], 100 to 500 nM. For the same compound, the “residual substrate protein level, IKZF1” value in assay [4] is recorded as “B (B represents a residual substrate protein level of >50%)”.

With `CC1(C)CCC(C(=O)N2CCN(Cc3cc4c(cc3F)C(=O)N(C3CCC(=O)NC3=O)C4)CC2)=C(c2ccc(Cl)cc2)C1` (stereo not drawn) [GT-05526, 3-(5-((4-(4′-chloro-5,5-dimethyl-3,4,5,6-tetrahydro-[1,1′-biphenyl]-2-carbonyl)piperazin-1-yl)methyl)-6-fluoro-1-oxoisoindolin-2-yl)piperidine-2,6-dione], the “residual substrate protein level, IKZF3” value in assay [1] is reported as “B (B represents a residual substrate protein level of >50%)”. In addition, the “residual substrate protein level, GSPT1” value in assay [2] was “A (A represents a residual substrate protein level of <50%)”. Besides, the IC50 in assay [7] was 690 nM; in assay [5], 500 to 1000 nM. Further, the “residual substrate protein level, IKZF1” value in assay [4] is recorded as “B (B represents a residual substrate protein level of >50%)”.

Consider `O=C1CCC(N2C(=O)c3ccc(CN4CCN(Cc5ccc(-c6ccc(Cl)cc6)cc5)CC4)cc3C2=O)C(=O)N1` (stereo not drawn) [GT-05599, 5-((4-((4′-chloro-[1,1′-biphenyl]-4-yl)methyl)piperazin-1-yl)methyl)-2-(2,6-dioxopiperidin-3-yl)isoindoline-1,3-dione], for which the “residual substrate protein level, IKZF3” value in assay [1] is on record as “A (A represents a residual substrate protein level of <50%)”. In addition, the “residual substrate protein level, GSPT1” value in assay [2] was “B (B represents a residual substrate protein level of >50%)”. Further, the IC50 in assay [3] is 100 to 500 nM; in assay [7], 1670 nM; in assay [6], 500 to 1000 nM. The “residual substrate protein level, IKZF1” value in assay [4] was “A (A represents a residual substrate protein level of <50%)”.

Take `CC1(C)CCC(CN2CCN(Cc3ccc4c(c3)CN(C3CCC(=O)NC3=O)C4=O)CC2)=C(c2cnco2)C1` (stereo not drawn) [GT-05848, 3-(5-((4-((4,4-dimethyl-2-(oxazol-5-yl)cyclohex-1-en-1-yl)methyl)piperazin-1-yl)methyl)-1-oxoisoindolin-2-yl)piperidine-2,6-dione]: the “residual substrate protein level, IKZF3” value in assay [1] is recorded as “A (A represents a residual substrate protein level of <50%)”. In assay [2], the “residual substrate protein level, GSPT1” value is given as “B (B represents a residual substrate protein level of >50%)”. The values for the IC50 in assay [3], in assay [7] and in assay [6] were 50 to 100 nM, 710 nM and 50 to 100 nM, respectively. The “residual substrate protein level, IKZF1” value in assay [4] is listed as “A (A represents a residual substrate protein level of <50%)”.

Consider `CC1(C)CCC(CN2C3CC2CN(Cc2ccc4c(c2F)CN(C2CCC(=O)NC2=O)C4=O)C3)=C(c2ccc(Cl)cc2)C1` (stereo not drawn) [GT-05529, 3-(5-((6-((4′-chloro-5,5-dimethyl-3,4,5,6-tetrahydro-[1,1′-biphenyl]-2-yl)methyl)-3,6-diazabicyclo[3.1.1]heptan-3-yl)methyl)-4-fluoro-1-oxoisoindolin-2-yl)piperidine-2,6-dione], for which, in assay [1], the “residual substrate protein level, IKZF3” value is recorded as “A (A represents a residual substrate protein level of <50%)”. Besides, the “residual substrate protein level, GSPT1” value in assay [2] is “B (B represents a residual substrate protein level of >50%)”. For the same compound, the results for the IC50 in assay [3], in assay [7] and in assay [6] were 500 to 1000 nM, 350 nM and 100 to 500 nM, respectively. Further, the “residual substrate protein level, IKZF1” value in assay [4] is “A (A represents a residual substrate protein level of <50%)”.
